Source: patent US20140186260A1, “RADIOPHARMACEUTICAL AND PHARMACEUTICAL KIT” (NIHON MEDI-PHYSICS CO., LTD., priority 2012, published 2014)
Structures can show the parent of a compound that is named as a salt. Where two headings read alike, the source gives them in different places.

Experiments:
HT29 tumor-bearing mice [1] = assay: Effect of Ca-DTPA on in vivo pharmacokinetics of ^64Cu-ATSM in HT29 tumor-bearing mouse (Comparative Example 1); details: Ca-DTPA 150 mg/kg i.v. 10 minutes after ^64Cu-ATSM; 1 and 2 hours; vs saline
[2] = ^64Cu complex exchange reaction between ^64Cu-ATSM and chelating agent in mouse plasma (TLC); details: 37° C., chelating agent 10 mg/mL, ^64Cu-ATSM 6 μCi/mL, 5, 30 or 60 minutes
Protocol: Blood collected from BALB/c nude mice (male, 6-week old, about 25 g in body weight, obtained from Japan SLC, Inc.) under diethyl ether anesthesia was centrifuged (high-speed cooling centrifuge Model MX-105, from Tomy Co., Ltd., 3,000 rpm, 10 minutes) to provide plasma. In the mouse plasma maintained at 37° C. was mixed each of D-penicillamine, dimercaprol, trientine hydrochloride, and deferoxamine mesylate to a final concentration of 10 mg/mL, to which ^64Cu-ATSM was then added to a final concentration of 6 μCi/mL. After maintaining each of the mixtures at 37° C. for 5 minutes, 30 minutes, or 60 minutes, methanol cooled at 4° C. in advance was added in an equal amount to the plasma thereto, which was thoroughly mixed and centrifuged (as above), followed by analyzing the supernatant by a TLC method.

HT29 tumor-bearing mice [3] = assay: Effect of D-penicillamine on in vivo pharmacokinetics of ^64Cu-ATSM in HT29 tumor-bearing mouse (1): before/after dosing; details: vs saline
HT29 tumor-bearing mice [4] = assay: Effect of D-penicillamine on in vivo pharmacokinetics and excretion of ^64Cu-ATSM in HT29 tumor-bearing mouse (2): dose dependence; details: D-penicillamine 100, 300 or 500 mg/kg oral 1 hour after ^64Cu-ATSM, vs saline
HT29 tumor-bearing mice [5] = assay: Effect of D-penicillamine on in vivo pharmacokinetics and excretion of ^64Cu-ATSM in HT29 tumor-bearing mouse (3): repeated administration; details: D-penicillamine 100 mg/kg oral 3 times at 1-hour or 2-hour intervals, vs saline
Protocol: 185 kBq (5 μCi) of ^64Cu-ATSM was administered through the tail vein of the tumor-bearing mice prepared by the same method as Example 3; D-penicillamine was orally administered to 100 mg/kg 1 hour thereafter; and D-penicillamine was then orally administered to 100 mg/kg 2 times at 1-hour or 2-hour intervals. Saline was administered to a control group in place of D-penicillamine. Thereafter, radioactivity in each organ, urine, and feces was measured as Example 4; the radioactivity distributed in each organ was expressed as % ID/g tissue, and the excretion of radioactivity into urine and feces was expressed as % ID.

HT29 tumor-bearing mice [6] = assay: Effect of D-penicillamine on PET imaging of ^64Cu-ATSM in HT29 tumor-bearing mouse; assay type: in vivo
Protocol: The distribution of radioactivity was imaged using a PET device specific for small animals (Inveon, from Siemens Medical Systems, Inc.) 30 minutes and 2, 3, 4, 5, 6, 7, 8, and 24 hours after the administration of ^64Cu-ATSM. Image acquisition was performed for 5 minutes from each time point, and the image was reconstructed by a 3-dimensional maximum a posteriori probability method (3D-MAP method) using Inveon Acquisition Workplace Software (from Siemens Medical Systems, Inc.). As a control, PET imaging was also similarly performed in mice receiving the administration of saline in place of D-penicillamine.

HT29 tumor-bearing mice [7] = assay: Effect of repeated D-penicillamine with or without glycerin enema on in vivo pharmacokinetics and excretion of ^64Cu-ATSM in HT29 tumor-bearing mouse (4); details: D-penicillamine 100 mg/kg oral at 1, 3 and 5 hours after ^64Cu-ATSM, vs saline
Description: FIGS. 12A, 12B and 12C were expressed in average and standard deviation for 4 mice.

CD133-positive cells = details: Yoshii et al. 2010; cited from earlier work
tumor = details: Yoshii et al. 2011; cited from earlier work
HT29 tumor-bearing mice [8] = details: trientine hydrochloride 500 mg/kg oral 1 hour after ^64Cu-ATSM; vs saline
Protocol: Human large bowel cancer-derived HT29 cells were purchased from ATCC and proliferated for use. The HT29 tumor-bearing model was prepared by implanting 1×10^7 HT29 cells subcutaneously in the femoral region of BALB/c nude mice (male, 6-week old, about 25 g in body weight, obtained from Japan SLC, Inc.), and used for the experiment 3 weeks after implantation. The tumor-bearing mice were fasted from 16 hours or more before the start of the experiment. 185 kBq (5 μCi) of ^64Cu-ATSM was administered through the tail vein of the HT29 tumor-bearing mice, and D-penicillamine was orally administered to 500 mg/kg 10 minutes therebefore or 1 hour thereafter. Saline was administered to a control group in place of D-penicillamine. They were sacrificed by blood removal from the heart under diethyl ether anesthesia 1, 2, and 3 hours after the administration of ^64Cu-ATSM; each tissue was removed and weighed; and radioactivity was further measured using an automatic gamma counter (Model: 1480 Wizard 3, from PerkinElmer Co., Ltd.). The radioactivity distributed in each organ was expressed as radioactivity per g of organ (% ID (Injected Dose)/g tissue) when the amount administered is set to 100%. 185 kBq (5 μCi) of ^64Cu-ATSM was administered through the tail vein of the HT29 tumor-bearing mice prepared by the same method as Example 3, and D-penicillamine was orally administered to 100, 300, or 500 mg/kg 1 hour thereafter. Saline was administered to a control group in place of D-penicillamine. They were sacrificed by blood removal from the heart under diethyl ether anesthesia 2, 4, 6, 16, and 24 hours after the administration of ^64Cu-ATSM; each tissue was removed and weighed; and radioactivity was further measured. The excreted urine and feces were recovered, and radioactivity was similarly measured. The radioactivity distributed in each organ was expressed as ID/g tissue. The excretion of radioactivity into each of urine and feces was expressed as radioactivity (% ID) when the amount administered was set to 100%. 185 kBq (5 μCi) of ^64Cu-ATSM was administered through the tail vein of the tumor-bearing mice prepared by the same method as Example 3, and trientine hydrochloride was orally administered to 500 mg/kg 1 hour thereafter. Saline was administered to a control group in place of trientine hydrochloride. Thereafter, radioactivity in each organ, urine, and feces was measured as Example 4; the radioactivity distributed in each organ was expressed as % ID/g tissue, and the excretion of radioactivity into urine and feces was expressed as % ID.

[9] = D-penicillamine 300 mg/kg oral 1 hour after 37 MBq ^64Cu-ATSM, vs saline

O=C([O-])CN(CCN(CC(=O)[O-])CC(=O)[O-])CCN(CC(=O)[O-])CC(=O)[O-].[Ca+2].[Na+].[Na+].[Na+] [Ca-DTPA]
uptake of radioactivity into each organ and tumor (HT29 tumor-bearing mice [1]): statistically little affected

CC(C)(S)[C@@H](N)C(=O)O [D-penicillamine]
^64Cu complex exchange reaction from ^64Cu-ATSM to a highly polar complex [2]: Cu-ATSM and unidentified metabolites or degradation products rapidly disappeared, and the origin component increased
uptake of radioactivity into the tumor (HT29 tumor-bearing mice [3]; D-penicillamine 500 mg/kg oral 10 minutes before ^64Cu-ATSM): decreased the uptake of radioactivity into the tumor
uptake of ^64Cu-ATSM into the tumor (HT29 tumor-bearing mice [3]; D-penicillamine 500 mg/kg oral 1 hour after ^64Cu-ATSM): did not affect
uptake of radioactivity into the liver (HT29 tumor-bearing mice [3]; D-penicillamine 500 mg/kg oral, 10 minutes before or 1 hour after ^64Cu-ATSM i.v., 1, 2, 3 hours): markedly decreased
uptake of radioactivity into the liver (HT29 tumor-bearing mice [4]; 2-24 hours): dose-dependently decreased
excretion of radioactivity into feces (HT29 tumor-bearing mice [4]): less affected
excretion of radioactivity into urine (HT29 tumor-bearing mice [4]): statistically significantly promoted
uptake of radioactivity into the tumor (HT29 tumor-bearing mice [4]): not statistically significantly affected
uptake of radioactivity into the liver (HT29 tumor-bearing mice [5]; from 1 hour after ^64Cu-ATSM): decreased
excretion of radioactivity into feces (HT29 tumor-bearing mice [5]): less affected
excretion of radioactivity into urine (HT29 tumor-bearing mice [5]): statistically significantly promoted
uptake of radioactivity into the tumor (HT29 tumor-bearing mice [5]): not statistically significantly affected
accumulation of radioactivity in the bladder (PET) (HT29 tumor-bearing mice [6]; [9]): increase the accumulation of radioactivity in the bladder
accumulation of radioactivity in the liver (PET) (HT29 tumor-bearing mice [6]; [9]): decrease the accumulation of radioactivity in the liver
accumulation of radioactivity in the tumor (PET) (HT29 tumor-bearing mice [6]; [9]): not affected
uptake of radioactivity into the liver (HT29 tumor-bearing mice [7]; 6, 16, 24 hours): decreased
excretion of radioactivity into urine (HT29 tumor-bearing mice [7]): statistically significantly promoted
uptake of radioactivity into the tumor (HT29 tumor-bearing mice [7]): not statistically significantly affected

CN=C([S-])N/N=C(C)/C(C)=N/NC([S-])=NC.[64Cu+2] [^64Cu-ATSM, radioactive diacetyl-bis(N4-methylthiosemicarbazone) copper complex]
radioactivity accumulation in the liver after ^64Cu-ATSM (PET) (HT29 tumor-bearing mice [6]; 37 MBq ^64Cu-ATSM i.v., before chelating agent): radioactivity accumulation in the liver was once observed
accumulation in CD133-positive cells (CD133-positive cells): accumulates in CD133-positive cells
amount of CD133-positive cells in tumor (tumor): decreased the amount of CD133-positive cells in tumor
tumor size (tumor): shrink the tumor

CC(=O)N(O)CCCCCNC(=O)CCC(=O)N(O)CCCCCNC(=O)CCC(=O)N(O)CCCCCN [deferoxamine mesylate]
^64Cu complex exchange reaction from ^64Cu-ATSM to a highly polar complex [2]: No complex exchange reaction

OCC(S)CS (stereo not drawn) [dimercaprol]
^64Cu complex exchange reaction from ^64Cu-ATSM to a highly polar complex [2]: Cu-ATSM and unidentified metabolites or degradation products rapidly disappeared, and the origin component increased

NCCNCCNCCN [trientine hydrochloride]
^64Cu complex exchange reaction from ^64Cu-ATSM to a highly polar complex [2]: the effect thereof was relatively weak
excretion of radioactivity into feces (HT29 tumor-bearing mice [8]): less affected
excretion of radioactivity into urine (HT29 tumor-bearing mice [8]): statistically significantly promoted
uptake of radioactivity into the liver (HT29 tumor-bearing mice [8]): tended to be decreased
uptake of radioactivity into the tumor (HT29 tumor-bearing mice [8]): not statistically significantly affected
